In PMC5437225, “Picomolar, selective, and subtype-specific small-molecule inhibition of TRPC1/4/5 channels” (The Journal of Biological Chemistry, 2017):

What was measured:
TRPC5 = biological target: T1, TRPC5 (Homo sapiens, UniProt Q9UL62); experiment: fura-2 Ca2+ entry, FlexStation 96-well; type: cell-based; settings: activated by 10 nM (-)-englerin A; pH 7.4; room temperature; 30 min preincubation; read-out: C31 IC50
T1 construct: homomer
T1 sequence (Q9UL62 1-973): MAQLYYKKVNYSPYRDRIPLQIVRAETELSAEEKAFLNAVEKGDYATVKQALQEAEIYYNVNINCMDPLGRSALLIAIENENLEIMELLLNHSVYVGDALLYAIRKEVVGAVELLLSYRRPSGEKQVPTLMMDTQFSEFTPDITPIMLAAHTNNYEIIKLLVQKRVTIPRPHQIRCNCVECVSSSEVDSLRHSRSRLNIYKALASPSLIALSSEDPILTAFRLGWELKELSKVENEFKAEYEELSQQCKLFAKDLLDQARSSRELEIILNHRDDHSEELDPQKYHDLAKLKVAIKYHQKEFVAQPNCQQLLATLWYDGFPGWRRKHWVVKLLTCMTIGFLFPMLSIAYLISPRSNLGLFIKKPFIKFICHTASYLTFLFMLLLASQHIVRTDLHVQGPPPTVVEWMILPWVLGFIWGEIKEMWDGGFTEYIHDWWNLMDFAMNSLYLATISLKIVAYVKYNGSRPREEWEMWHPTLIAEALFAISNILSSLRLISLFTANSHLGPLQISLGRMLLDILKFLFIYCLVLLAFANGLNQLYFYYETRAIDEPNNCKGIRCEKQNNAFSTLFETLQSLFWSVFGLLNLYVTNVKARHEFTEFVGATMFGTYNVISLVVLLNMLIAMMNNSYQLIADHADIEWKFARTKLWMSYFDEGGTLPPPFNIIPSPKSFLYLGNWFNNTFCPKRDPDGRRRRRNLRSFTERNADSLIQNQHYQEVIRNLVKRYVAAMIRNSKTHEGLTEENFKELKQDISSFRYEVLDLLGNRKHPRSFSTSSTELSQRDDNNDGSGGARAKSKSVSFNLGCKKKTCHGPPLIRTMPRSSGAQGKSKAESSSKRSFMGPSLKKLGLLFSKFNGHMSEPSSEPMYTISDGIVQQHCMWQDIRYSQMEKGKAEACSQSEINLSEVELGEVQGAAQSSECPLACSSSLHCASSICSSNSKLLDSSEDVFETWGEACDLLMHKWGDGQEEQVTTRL
From the text: fura-2 Ca2+ entry, FlexStation 96-well on TRPC5

TRPC5-TRPC1 concatemer = biological target: T2, TRPC5-TRPC1 concatemer (Homo sapiens, UniProt P48995+Q9UL62); experiment: fura-2 Ca2+ entry, FlexStation 96-well; type: cell-based; settings: read-out: C31 IC50
T2 construct: concatemer of TRPC5 with TRPC1
T2 sequence (P48995 whole entry, one chain of several): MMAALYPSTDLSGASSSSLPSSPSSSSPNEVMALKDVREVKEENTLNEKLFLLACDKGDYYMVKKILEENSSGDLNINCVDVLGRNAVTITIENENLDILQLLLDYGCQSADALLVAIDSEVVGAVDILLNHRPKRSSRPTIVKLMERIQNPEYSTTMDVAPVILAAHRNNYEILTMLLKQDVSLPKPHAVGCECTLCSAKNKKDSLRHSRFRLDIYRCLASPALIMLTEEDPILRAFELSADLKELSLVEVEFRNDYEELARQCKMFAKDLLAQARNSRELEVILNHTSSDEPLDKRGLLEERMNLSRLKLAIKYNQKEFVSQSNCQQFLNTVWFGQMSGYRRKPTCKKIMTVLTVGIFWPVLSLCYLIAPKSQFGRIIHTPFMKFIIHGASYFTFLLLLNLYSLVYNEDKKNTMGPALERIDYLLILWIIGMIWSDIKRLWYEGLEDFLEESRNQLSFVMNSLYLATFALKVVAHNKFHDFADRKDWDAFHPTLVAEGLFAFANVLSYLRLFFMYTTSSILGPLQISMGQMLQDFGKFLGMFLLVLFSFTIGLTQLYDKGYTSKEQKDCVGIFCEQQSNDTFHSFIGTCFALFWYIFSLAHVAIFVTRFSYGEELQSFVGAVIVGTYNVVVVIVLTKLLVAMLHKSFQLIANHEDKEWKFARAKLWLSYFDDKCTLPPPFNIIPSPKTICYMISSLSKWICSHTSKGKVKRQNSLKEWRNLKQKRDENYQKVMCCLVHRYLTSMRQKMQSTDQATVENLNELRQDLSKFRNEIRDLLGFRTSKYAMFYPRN
From the text: fura-2 Ca2+ entry, FlexStation 96-well on TRPC5-TRPC1 concatemer

IC50 (TRPC5): 1.3 nM
IC50 (TRPC5-TRPC1 concatemer): 0.199 nM
Structure (SMILES): Cn1c(=O)n(CCCO)c(=O)c2c1nc(Oc1cccc(OC(F)(F)F)c1)n2Cc1ccc(Cl)cc1 [compound 31, C31]
